Experimental findings from patent publication US8618289B2 (Ambit Biosciences Corporation, priority 2008, dated 2013) are described below.

Experiment [1] addresses RAF kinases (Homo sapiens, UniProt P15056). Particulars: read-out: BRAF WT Kd; BRAF WT.
Experiment [2] concerns the target RAF kinases (Homo sapiens, UniProt P04049). As to conditions: read-out: RAF1 Kd; RAF1.
For experiment [3], the system named is MEK1 phosphorylation in the A375 human melanoma cell line. In words: cells. As to conditions: A-375, read-out: pMEK IC50.
Experiment [4] deals with T1, RAF kinases (Homo sapiens, UniProt P15056, V600E). In words: biochemical.
T1 sequence (P15056 whole entry V600E): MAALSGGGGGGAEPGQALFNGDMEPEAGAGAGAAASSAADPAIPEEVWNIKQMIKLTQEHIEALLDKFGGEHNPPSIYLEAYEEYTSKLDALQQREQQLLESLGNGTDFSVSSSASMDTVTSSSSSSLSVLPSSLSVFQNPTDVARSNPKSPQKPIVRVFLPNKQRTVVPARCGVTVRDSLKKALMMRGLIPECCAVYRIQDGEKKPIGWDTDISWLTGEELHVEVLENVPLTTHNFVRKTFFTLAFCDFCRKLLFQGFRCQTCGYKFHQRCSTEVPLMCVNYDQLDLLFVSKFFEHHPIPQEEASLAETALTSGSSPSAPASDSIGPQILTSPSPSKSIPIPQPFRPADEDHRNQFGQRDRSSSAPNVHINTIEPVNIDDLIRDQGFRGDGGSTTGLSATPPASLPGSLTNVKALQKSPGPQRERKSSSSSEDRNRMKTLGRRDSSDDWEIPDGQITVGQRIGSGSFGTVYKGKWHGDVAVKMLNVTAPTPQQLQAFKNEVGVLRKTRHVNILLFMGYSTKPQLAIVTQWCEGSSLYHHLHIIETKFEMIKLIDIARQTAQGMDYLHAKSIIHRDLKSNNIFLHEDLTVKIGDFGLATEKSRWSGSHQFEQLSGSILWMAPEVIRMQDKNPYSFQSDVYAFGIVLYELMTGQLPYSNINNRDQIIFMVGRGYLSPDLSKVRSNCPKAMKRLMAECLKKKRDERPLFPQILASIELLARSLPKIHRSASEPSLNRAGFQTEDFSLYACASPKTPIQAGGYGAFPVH
Experiment [5] has as its target T1, RAF kinases. Particulars: read-out: BRAF V600E Kd; BRAF V600E.
Another experiment has as its system A375 cells. In words: cells. As to conditions: Homo sapiens, A-375, read-out: A375 Viability EC50.

Each structure is given as a SMILES string. pEC50, pIC50, pKd: −log10 of the molar value. Where two headings read alike, the source gives them in different places.

Chain of RAF kinases (Homo sapiens, UniProt P15056) (P15056 whole entry): as the sequence (P15056 whole entry V600E) above, with E600V counted along it
Chain of RAF kinases (Homo sapiens, UniProt P04049) (P04049 whole entry): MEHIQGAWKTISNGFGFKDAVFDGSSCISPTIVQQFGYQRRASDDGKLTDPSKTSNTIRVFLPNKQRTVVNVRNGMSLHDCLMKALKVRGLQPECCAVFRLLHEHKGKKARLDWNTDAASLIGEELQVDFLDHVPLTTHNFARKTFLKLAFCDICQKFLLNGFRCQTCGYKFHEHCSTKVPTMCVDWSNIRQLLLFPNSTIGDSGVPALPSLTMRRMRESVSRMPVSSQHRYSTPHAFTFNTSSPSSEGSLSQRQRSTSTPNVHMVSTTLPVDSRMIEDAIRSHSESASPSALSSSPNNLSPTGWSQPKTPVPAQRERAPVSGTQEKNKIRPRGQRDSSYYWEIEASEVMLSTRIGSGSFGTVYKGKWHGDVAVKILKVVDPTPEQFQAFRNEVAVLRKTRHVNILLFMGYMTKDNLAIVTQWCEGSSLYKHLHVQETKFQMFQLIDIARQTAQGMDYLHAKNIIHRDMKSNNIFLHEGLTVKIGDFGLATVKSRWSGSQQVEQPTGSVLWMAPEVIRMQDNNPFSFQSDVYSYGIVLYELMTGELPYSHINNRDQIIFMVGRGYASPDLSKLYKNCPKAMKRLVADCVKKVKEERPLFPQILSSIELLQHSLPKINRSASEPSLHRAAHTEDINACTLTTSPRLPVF

Usually pKd stands for the negative decadic logarithm of the Kd, by convention in mol/L. The term pIC50 denotes the IC50 on a negative log10 scale, so that one unit is a factor of ten. As for `COc1cc2ncnc(Oc3cc(NC(=O)Nc4cc(C(C)(C)C)nn4-c4ccc(C)cc4)c(F)cc3F)c2cc1OC` [Ex 272, 1-(3-tert-butyl-1-p-tolyl-1H-pyrazol-5-yl)-3-(5-(6,7-dimethoxyquinazolin-4-yloxy)-2,4-difluorophenyl)urea], the pKd at RAF kinases [1] was less than 6.00; on RAF kinases [2], less than 6.00; on RAF kinases [4] it was 6.00 to 6.30. In experiment [3], the negative logarithm of the IC50 (pIC50) was more than 6.60.
On to `COc1cc2ncnc(Oc3cc(NC(=O)Nc4cc(C(C)(C)C)nn4-c4ccccc4)c(F)cc3F)c2cc1OC` [Ex 273, 1-(3-tert-butyl-1-phenyl-1H-pyrazol-5-yl)-3-(5-(6,7-dimethoxyquinazolin-4-yloxy)-2,4-difluorophenyl)urea], for which the pKd at RAF kinases [1] was less than 6.00; at RAF kinases [2], less than 6.00; at RAF kinases [4], 6.00 to 6.30. For the same compound, the pIC50 in experiment [3] is more than 6.60.
On to `COc1cc2ncnc(Oc3cccc(NC(=O)Nc4cc(C(C)(C)C)nn4-c4ccc(C)cc4)c3)c2cc1OC` [Ex 274, 1-(3-tert-butyl-1-p-tolyl-1H-pyrazol-5-yl)-3-(3-(6,7-dimethoxyquinazolin-4-yloxy)phenyl)urea], for which the pKd at RAF kinases [1] is less than 6.00; on RAF kinases [2], less than 6.00; at RAF kinases [4], 6.30 to 6.60. In experiment [3], the negative logarithm of the IC50 (pIC50) is more than 6.60.
Consider `COc1cc2ncnc(Sc3cccc(NC(=O)Nc4cc(C(C)(C)C)nn4-c4ccc(C)cc4)c3)c2cc1OC` [Ex 275, 1-(3-tert-butyl-1-p-tolyl-1H-pyrazol-5-yl)-3-(3-(6,7-dimethoxyquinazolin-4-ylthio)phenyl)urea], for which the negative logarithm of the Kd (pKd) is less than 6.00 on RAF kinases [1], less than 6.00 on RAF kinases [2] and 6.30 to 6.60 at RAF kinases [4]. Further, the pIC50 in experiment [3] was more than 6.60.
Turning to `COc1cc2ncnc(Oc3cccc(NC(=O)Nc4cc(C(C)(C)C)nn4-c4ccc(C)cc4C)c3)c2cc1OC` [Ex 282, 1-(3-tert-butyl-1-(2,4-dimethylphenyl)-1H-pyrazol-5-yl)-3-(3-(6,7-dimethoxyquinazolin-4-yloxy)phenyl)urea], the pKd is less than 6.00 on RAF kinases [1], less than 6.00 on RAF kinases [2] and 6.00 to 6.30 on RAF kinases [4]. Further, the negative-log IC50 (pIC50) in experiment [3] was more than 6.60.
For `COc1cc2ncnc(Oc3cccc(NC(=O)Nc4cc(C(C)(C)C)nn4-c4cccc(C)c4)c3)c2cc1OC` [Ex 285, 1-(3-tert-butyl-1-m-tolyl-1H-pyrazol-5-yl)-3-(3-(6,7-dimethoxyquinazolin-4-yloxy)phenyl)urea], the values for the pKd on RAF kinases [1], at RAF kinases [2] and at RAF kinases [4] were less than 6.00, less than 6.00 and 6.30 to 6.60, respectively. Besides, the pIC50 in experiment [3] was more than 6.60.
Consider `COc1cc2ncnc(Sc3cccc(NC(=O)Nc4cc(C(C)(C)C)nn4-c4cccc(C)c4)c3)c2cc1OC` [Ex 286, 1-(3-tert-butyl-1-m-tolyl-1H-pyrazol-5-yl)-3-(3-(6,7-dimethoxyquinazolin-4-ylthio)phenyl)urea], for which the results for the pKd at RAF kinases [1], on RAF kinases [2] and on RAF kinases [4] were less than 6.00, less than 6.00 and 6.30 to 6.60, respectively. Besides, in experiment [3], the pIC50 is more than 6.60.
Regarding `COCCOc1cc2ncnc(Sc3cccc(NC(=O)Nc4cc(C(C)(C)C)nn4-c4cccc(C)c4)c3)c2cc1OC` [Ex 287, 1-(3-tert-butyl-1-m-tolyl-1H-pyrazol-5-yl)-3-(3-(6-methoxy-7-(2-methoxyethoxy)quinazolin-4-ylthio)phenyl)urea], the values for the negative logarithm of the Kd (pKd) at RAF kinases [1], at RAF kinases [2] and on RAF kinases [4] were less than 6.00, less than 6.00 and 6.00 to 6.30, respectively. The pIC50 in experiment [3] is more than 6.60.
`COc1cc2ncnc(Oc3cccc(NC(=O)Nc4cc(C(C)(C)C)nn4-c4ccc(C)cc4)c3C)c2cc1OC` [Ex 288, 1-(3-tert-butyl-1-p-tolyl-1H-pyrazol-5-yl)-3-(3-(6,7-dimethoxyquinazolin-4-yloxy)-2-methylphenyl)urea]: the pKd at RAF kinases [1] was less than 6.00; on RAF kinases [2], less than 6.00; on RAF kinases [4], 6.30 to 6.60. Moreover, the pIC50 in experiment [3] is more than 6.60.
Take `COc1cc2ncnc(Sc3cccc(NC(=O)Nc4cc(C(C)(C)C)nn4-c4cccc(F)c4)c3)c2cc1OC` [Ex 360, 1-(3-tert-butyl-1-(3-fluorophenyl)-1H-pyrazol-5-yl)-3-(3-(6,7-dimethoxyquinazolin-4-ylthio)phenyl)urea]: the figures for the pKd at RAF kinases [1], on RAF kinases [2] and at RAF kinases [4] were less than 6.00, less than 6.00 and 6.30 to 6.60, respectively. Further, the negative logarithm of the IC50 (pIC50) in experiment [3] was more than 6.60.
`COc1ccc(-n2nc(C(C)(C)C)cc2NC(=O)Nc2cccc(Sc3ncnc4cc(OC)c(OC)cc34)c2)cc1` [Ex 362, 1-(3-tert-butyl-1-(4-methoxyphenyl)-1H-pyrazol-5-yl)-3-(3-(6,7-dimethoxyquinazolin-4-ylthio)phenyl)urea]: the negative logarithm of the Kd (pKd) at RAF kinases [1] was less than 6.00; at RAF kinases [2], less than 6.00; on RAF kinases [4], 6.00 to 6.30. For the same compound, the negative-log IC50 (pIC50) in experiment [3] is more than 6.60.
Consider `COc1cc2ncnc(Oc3cccc(NC(=O)Nc4cc(C(C)(C)C)nn4-c4ccc(Cl)cc4)c3)c2cc1OC` [Ex 365, 1-(3-tert-butyl-1-(4-chlorophenyl)-1H-pyrazol-5-yl)-3-(3-(6,7-dimethoxyquinazolin-4-yloxy)phenyl)urea], for which the pKd on RAF kinases [1] is less than 6.00; on RAF kinases [2], less than 6.00; at RAF kinases [4] it was 6.30 to 6.60. Also, the pIC50 in experiment [3] is more than 6.60.
Take `COc1cc2ncnc(Sc3cccc(NC(=O)Nc4cc(C(C)(C)C)nn4-c4ccc(Cl)cc4)c3)c2cc1OC` [Ex 366, 1-(3-tert-butyl-1-(4-chlorophenyl)-1H-pyrazol-5-yl)-3-(3-(6,7-dimethoxyquinazolin-4-ylthio)phenyl)urea]: the values for the negative logarithm of the Kd (pKd) on RAF kinases [1], on RAF kinases [2] and at RAF kinases [4] were less than 6.00, less than 6.00 and 6.30 to 6.60, respectively. Also, in experiment [3], the negative-log IC50 (pIC50) is more than 6.60.
Turning to `COc1cc2ncnc(Oc3ccc(F)c(NC(=O)Nc4cc(C(C)(C)C)nn4-c4ccccc4)c3)c2cc1OC` [Ex 368, 1-(3-tert-butyl-1-phenyl-1H-pyrazol-5-yl)-3-(5-(6,7-dimethoxyquinazolin-4-yloxy)-2-fluorophenyl)urea], the negative logarithm of the Kd (pKd) at RAF kinases [1] was less than 6.00; at RAF kinases [2], less than 6.00; at RAF kinases [4] it was 6.00 to 6.30. Besides, the pIC50 in experiment [3] is more than 6.60.
On to `COc1cc2ncnc(Sc3cccc(NC(=O)Nc4cc(C(C)(C)C)nn4-c4ccccc4F)c3)c2cc1OC` [Ex 371, 1-(3-tert-butyl-1-(2-fluorophenyl)-1H-pyrazol-5-yl)-3-(3-(6,7-dimethoxyquinazolin-4-ylthio)phenyl)urea], for which the negative logarithm of the Kd (pKd) at RAF kinases [1] was less than 6.00; at RAF kinases [2] it was less than 6.00; on RAF kinases [4] it was 6.30 to 6.60. In experiment [3], the pIC50 is more than 6.60.
As to `COc1cc2ncnc(Oc3cccc(NC(=O)Nc4cc(C(C)(C)C)nn4-c4ccc(C(F)(F)F)cc4)c3)c2cc1OC` [Ex 373, 1-(3-tert-butyl-1-(4-(trifluoromethyl)phenyl)-1H-pyrazol-5-yl)-3-(3-(6,7-dimethoxyquinazolin-4-yloxy)phenyl)urea], the pKd on RAF kinases [1] is less than 6.00; on RAF kinases [2], less than 6.00; on RAF kinases [4], 6.00 to 6.30. In addition, the pIC50 in experiment [3] was more than 6.60.
For the compound `COc1cc2ncnc(Sc3cccc(NC(=O)Nc4cc(C(C)(C)C)nn4-c4ccccc4C(F)(F)F)c3)c2cc1OC` [Ex 375, 1-(3-tert-butyl-1-(2-(trifluoromethyl)phenyl)-1H-pyrazol-5-yl)-3-(3-(6,7-dimethoxyquinazolin-4-ylthio)phenyl)urea], the figures for the pKd on RAF kinases [1], on RAF kinases [2] and at RAF kinases [4] were less than 6.00, less than 6.00 and 6.00 to 6.30, respectively. Moreover, the pIC50 in experiment [3] is more than 6.60.
Take `COc1cc2ncnc(Oc3cccc(NC(=O)Nc4cc(C(C)(C)C)nn4-c4ccccc4C(F)(F)F)c3)c2cc1OC` [Ex 376, 1-(3-tert-butyl-1-(2-(trifluoromethyl)phenyl)-1H-pyrazol-5-yl)-3-(3-(6,7-dimethoxyquinazolin-4-yloxy)phenyl)urea]: the negative logarithm of the Kd (pKd) on RAF kinases [1] is less than 6.00; on RAF kinases [2], less than 6.00; at RAF kinases [4] it was 6.00 to 6.30. For the same compound, the negative-log IC50 (pIC50) in experiment [3] was more than 6.60.
With `COc1cc2ncnc(Oc3cccc(NC(=O)Nc4cc(C(C)(C)C)nn4-c4cccc(C(F)(F)F)c4)c3)c2cc1OC` [Ex 379, 1-(3-tert-butyl-1-(3-(trifluoromethyl)phenyl)-1H-pyrazol-5-yl)-3-(3-(6,7-dimethoxyquinazolin-4-yloxy)phenyl)urea], the values for the pKd on RAF kinases [1], at RAF kinases [2] and on RAF kinases [4] were less than 6.00, less than 6.00 and 6.30 to 6.60, respectively. Also, the pIC50 in experiment [3] is more than 6.60.
A word on the pEC50: it is the EC50 on a negative log10 scale, so that one unit is a factor of ten. As for `CCOc1cc2c(Sc3cccc(NC(=O)Nc4cc(C(C)(CF)CF)on4)c3)ncnc2cc1OC` [Ex 395, 1-(5-(1,3-difluoro-2-methylpropan-2-yl)isoxazol-3-yl)-3-(3-(6-ethoxy-7-methoxyquinazolin-4-ylthio)phenyl)urea], the pKd at RAF kinases [1], at RAF kinases [2] and on RAF kinases [5] was more than 6.60 in each case. Further, in experiment [3], the pIC50 was more than 6.60. For the same compound, the negative logarithm of the EC50 (pEC50) in the experiment with A375 cells is more than 6.60.
Take `CCc1cc(NC(=O)Nc2cccc(Sc3ncnc4cc(OC)c(OC)cc34)c2)n(-c2ccccc2)n1` [Ex 399, 1-(3-(6,7-dimethoxyquinazolin-4-ylthio)phenyl)-3-(3-ethyl-1-phenyl-1H-pyrazol-5-yl)urea]: the pKd on RAF kinases [1], on RAF kinases [2] and on RAF kinases [5] was more than 6.60 throughout. For the same compound, the pIC50 in experiment [3] was 6.30 to 6.60. In the experiment with A375 cells, the pEC50 is 6.30 to 6.60.
`CCOc1cc2ncnc(Sc3cccc(NC(=O)Nc4cc(C(C)(CF)CF)on4)c3)c2cc1OC` [Example 388, 1-(5-(1,3-difluoro-2-methylpropan-2-yl)isoxazol-3-yl)-3-(3-(7-ethoxy-6-methoxyquinazolin-4-ylthio)phenyl)urea]: the negative logarithm of the Kd (pKd) at RAF kinases [1], on RAF kinases [2] and on RAF kinases [5] was more than 6.60 in each case. For the same compound, the pIC50 in experiment [3] is 6.30 to 6.60. For the same compound, the negative logarithm of the EC50 (pEC50) in the experiment with A375 cells is 6.30 to 6.60.
